Data on 27 compounds can be found in patent US10604489B2, “Compounds for the treatment of pain” (priority 2018, dated 2020).

Data set [1] has as its system Male Sprague-Dawley rats. Put plainly: animal or person. In kind it is in vivo, rat.
Data set [2] addresses μ-receptor (Homo sapiens (Human), UniProt P35372). Put plainly: Receptor binding, competitive displacement of [3H]DAMGO. The conditions noted are these: 0.25 nM [3H]DAMGO, CHO cell membrane protein, 60 min at 25° C. The essentials:
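Ki derived via Cheng-Prusoff from IC50 (log-probit fit) of displacement of 0.25 nM [3H]DAMGO, 12 concentrations, from human μ-receptor in CHO cell membranes. Binding: 50 mM Tris-HCl pH 7.5, 25 °C, 60 min, 10 μM naloxone defining nonspecific, filter-bound radioactivity counted.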
A general note: Loss of bound radioactivity is the signal in a displacement assay; it reports binding, not function.

Data set [3] has as its target T1, human μ opioid receptor (Homo sapiens (Human), UniProt P35372). As to the kind of experiment: Functional activity ([35S]GTPγS binding). In kind it is biochemical. The conditions noted are these: [35S]GTPγS 0.080 nM, CHO cell membranes, 60 min at 30° C., filtration. In short, it runs like this: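 Membranes from stably transfected CHO cells (7.5 μg) incubated with 12 test-compound concentrations and 0.080 nM [35S]GTPγS in 50 mM Tris-HCl pH 7.4, 3 mM MgCl2, 0.2 mM EGTA, 3 μM GDP, 100 mM NaCl, 60 min at 30° C. Nonspecific binding defined with 10 μM GTPγS; bound label collected by filtration and scintillation counting.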

The test system of data set [4] is Male Sprague-Dawley rats. As to conditions: rat.
Data set [5] deals with T1, human μ opioid receptor. Put plainly: Alternate functional activity ([35S]GTPγS binding) assay, SPA beads. In kind it is biochemical. As to conditions: alternate assay: [35S]GTPγS 0.020 nM, CHO cell membranes with WGA PVT SPA beads. How it is done:
The [^35S]GTPγS assay measures the functional properties of a compound by quantifying the level of G-protein activation following agonist binding in studies using stably transfected cells, and is considered to be a measure of the efficacy of a compound. Membranes from CHO (Chinese Hamster Ovary) cells that stably expressed one type of the cloned human opioid receptor human were used in the experiments. The assay buffer consisted of 50 mM Tris-HCl, pH 7.4, 3 mM MgCl2, 0.2 mM EGTA, 5 μM GDP, and 100 mM NaCl. CHO cell membranes stably expressing the human p opioid receptor were pre-incubated with scintillation proximity assay beads from PerkinElmer® (WGA PVT SPA) for 30 minutes, at 8 µg membrane and […] beads in a volume of 0.1 mL per reaction. In a final volume of 0.2 mL, 11 different concentrations of each test compound were incubated with the membrane-SPA bead mixture and a final concentration of 0.020 nM [35S]GTPγS for 1.5 hours with gentle shaking. Reactions were then incubated for 5 hours. Data are the mean EC50 values ±S.E.M. EC50 values (nM) for compounds 12, 16, 19, 20, 149, 151, 152, 157, 160, 161, 164-169, 172, 173, 180-197, and 199-207 are shown in Table 1.

[6] abbreviates: sc, minimum dose at which maximal reversal of hind paw weight bearing (50±0.5%) was achieved, subcutaneous administration, rat, read-out: MEMD SC CFA.
[7] abbreviates: Rattus norvegicus, sc, read-out: MEMD SC CFA (mg/kg).
The mark [8] stands for this setting: maximum pCO2 within 2 hours of administration, dose 10× CFA MEMD, subcutaneous.

Molecules are shown by their SMILES. Where two headings read alike, the source gives them in different places. A value given as a limit tells only on which side of the number the result lay.

Usually Ki stands for a dissociation constant, usually derived from enzyme kinetics or from competition with a known ligand. A lower Ki goes with tighter binding. By EC50 is commonly meant the concentration giving half of the maximal effect.

For `COC1(c2cccc(C(N)=O)c2)C2CCCC1CN(C[C@@H]1CCOC1)C2.Cl` (single isomer, unassigned) [Compound 143], in data set [1] (setting [6]), the minimal effective dose came out at 1 mg/kg.

Regarding `COC1(c2cccc(C(N)=O)c2)C2CCCC1CN(C[C@H]1[C@@H]3COC[C@@H]31)C2.Cl` (stereo partly shown) [Compound 176], the Ki in data set [2] is less than 1 nM. The EC50 in data set [3] was less than 10 nM. Further, the minimal effective dose in data set [1] (setting [6]) stood at 0.1 mg/kg.

For `CN1CC[C@]23c4c5ccc(O)c4O[C@H]2[C@@H](O)C=C[C@H]3[C@H]1C5` [Morphine, reference compound], the minimal effective dose in data set [1] (setting [7]) was 3 mg/kg. The “<60 mmHg @ 10X CFA MEMD” value in data set [4] (in vivo, sc) is on record as “− (key: −: resulted in a maximum pCO2 value of greater than 60 mmHg within 2 hours of administration; +: resulted in a maximum pCO2 value of less than 60 mmHg within 2 hours of administration)”.

On to `COC1(c2cccc(C(N)=O)c2)C2CCCC1CN([C@H]1CCCOC1)C2.Cl` (single isomer, unassigned) [Compound 140], for which the minimal effective dose in data set [1] (setting [6]) worked out at 0.1 mg/kg. Moreover, the “<60 mmHg @ 10X CFA MEMD” value in data set [4] (setting [8]) is recorded as “+ (resulted in a maximum pCO2 value of less than 60 mmHg within 2 hours of administration)”.

On to `CO[C@@]1(c2ccnc(C(N)=O)c2)[C@@H]2CCC[C@H]1CN(Cc1ncc(C)[nH]1)C2.Cl` [Compound 153, 4-((1R,5S,9r)-9-methoxy-3-((5-methyl-1H-imidazol-2-yl)methyl)-3-azabicyclo[3.3.1]nonan-9-yl)picolinamide hydrochloride], for which, in data set [2], the Ki was less than 1 nM. For the same compound, the EC50 in data set [3] was in the range of 10 to 75 nM. Moreover, in data set [1] (minimum dose at which maximal reversal of hind paw weight bearing (50±0.5%) was achieved, subcutaneous administration, rat), the “MEMD SC CFA” value came to 1 mg/kg.

For the compound `COC1(c2ccc(C(N)=O)s2)C2CCCC1CN(C)C2.Cl` [Compound 48, 5-((1R,5S,9r)-9-methoxy-3-methyl-3-azabicyclo[3.3.1]nonan-9-yl)thiophene-2-carboxamide hydrochloride], the Ki in data set [2] was less than 1 nM. Also, the EC50 in data set [3] was in the range of 10 to 75 nM. Also, the minimal effective dose in data set [1] (setting [6]) came out at 0.1 mg/kg.

In data set [2], `COC1(c2ccnc(C(N)=O)c2)C2CCCC1CN(Cc1cnc[nH]1)C2.Cl` [Compound 96, 4-((1R,5S,9r)-3-((1H-imidazol-5-yl)methyl)-9-methoxy-3-azabicyclo[3.3.1]nonan-9-yl)picolinamide hydrochloride] returned a Ki of less than 1 nM. The compound further yielded an EC50 in data set [3] of 10 to 75 nM. Moreover, the minimal effective dose in data set [1] (setting [6]) is 1 mg/kg.

Regarding `CO[C@@]12CC[C@@]3(C[C@@H]1[C@](C)(O)C(C)(C)C)[C@H]1Cc4ccc(O)c5c4[C@@]3(CCN1CC1CC1)[C@H]2O5` [Buprenorphine, reference compound], the “MEMD SC CFA” value in data set [1] (rat, in vivo) is listed as 0.1 mg/kg.

`COC1(c2cccc(C(N)=O)c2)C2CCCC1CN(CCN1CCNC1=O)C2.Cl` [Compound 63, 3-((1R,5S,9r)-9-methoxy-3-(2-(2-oxoimidazolidin-1-yl)ethyl)-3-azabicyclo[3.3.1]nonan-9-yl)benzamide hydrochloride]: the Ki in data set [2] was less than 1 nM. Further, the EC50 in data set [3] is 10 to 75 nM. In addition, the minimal effective dose in data set [1] (setting [6]) is more than 1 mg/kg.

Compound `COC1(c2cccc(C(N)=O)c2)C2CCCC1CN(CCc1cnn[nH]1)C2.Cl` [Compound 155, 3-((1R,5S,9r)-3-(2-(1H-1,2,3-triazol-4-yl)ethyl)-9-methoxy-3-azabicyclo[3.3.1]nonan-9-yl)benzamide hydrochloride] showed a Ki in data set [2] of less than 1 nM. Further, the EC50 in data set [3] is less than 10 nM. The minimal effective dose in data set [1] (setting [6]) was determined as 1 mg/kg.

Consider `CCOC1(c2ccnc(C(N)=O)c2)C2CCCC1CNC2` (stereo not shown) [Compound 161], for which the EC50 in data set [5] is 10 to 75 nM. In data set [1] (setting [6]), the minimal effective dose was determined as 0.3 mg/kg.

Regarding `COC1(c2ccnc(C(N)=O)c2)C2CCCC1CN(C[C@@H]1C[C@@H]3C[C@@H]3C1)C2.Cl` (stereo partly drawn) [Compound 104, 4-((1R,5S,9R)-3-((1R,3s,5S)-bicyclo[3.1.0]hexan-3-ylmethyl)-9-methoxy-3-azabicyclo[3.3.1]nonan-9-yl)picolinamide hydrochloride], the Ki in data set [2] is less than 1 nM. Moreover, in data set [3], the EC50 lay within 10 to 75 nM. Moreover, the minimal effective dose in data set [1] (po, minimum dose at which maximal reversal of hind paw weight bearing was achieved, dosed orally, rat, read-out: MEMD SC CFA) is not above 0.1 mg/kg.

As for `COCCN1CC2CCCC(C1)C2(OC)c1cccc(C(N)=O)c1.Cl` [Compound 128, 3-((1R,5S,9r)-9-methoxy-3-(2-methoxyethyl)-3-azabicyclo[3.3.1]nonan-9-yl)benzamide hydrochloride], the Ki in data set [2] is less than 1 nM. In addition, the EC50 in data set [3] was in the range of 10 to 75 nM. Besides, the minimal effective dose in data set [1] (setting [6]) was 1 mg/kg.

For `COC1(c2ccnc(C(N)=O)c2)C2CCCC1CN(C[C@H]1CCCO1)C2.Cl` (single isomer, unassigned) [Compound 136], the minimal effective dose in data set [1] (setting [6]) came to 0.3 mg/kg.

Compound `COC1(c2ccnc(C(N)=O)c2)C2CCCC1CN(C[C@@H]1C[C@H]3CC[C@@H](C1)O3)C2` (stereo partly shown) [Compound 165] showed an EC50 in data set [5] of 10 to 75 nM.

For `COC1(c2cc(F)cc(C(N)=O)c2)C2CCCC1CNC2` (stereo not shown) [Compound 181], in data set [5], the EC50 fell in the range of 10 to 75 nM.

The compound `COC1(c2cc(C(N)=O)ccc2F)C2CCCC1CN(C)C2` (stereo not shown) [Compound 194] displayed an EC50 in data set [5] of 10 to 75 nM.

As to `Oc1ccc2c3c1O[C@H]1[C@@H](O)CC[C@@]4(O)[C@@H](C2)N(CC2CCC2)CC[C@]314` [Nalbuphine, reference compound], in data set [1] (setting [7]), the minimal effective dose was more than 10 mg/kg.

For the compound `COC1(c2ccnc(C(N)=O)c2)C2CCCC1CN(C1(C)CCC1)C2` (stereo not shown) [Compound 201], in data set [5], the EC50 was 10 to 75 nM.

Take `COC1(c2cccc(C(N)=O)c2)C2CCCC1CN(CCC1CC1)C2.Cl` [Compound 138, 3-((1R,5S,9r)-3-(2-cyclopropylethyl)-9-methoxy-3-azabicyclo[3.3.1]nonan-9-yl)benzamide hydrochloride]: the Ki in data set [2] is less than 1 nM. Moreover, in data set [3], the EC50 was less than 10 nM. Also, in data set [1] (setting [6]), the minimal effective dose came out at 0.3 mg/kg.

The compound `COC1(c2ccnc(C(N)=O)c2)C2CCCC1CN(C1CCOCC1)C2.Cl` [Compound 56, 4-((1R,5S,9r)-9-methoxy-3-(tetrahydro-2H-pyran-4-yl)-3-azabicyclo[3.3.1]nonan-9-yl)picolinamide hydrochloride] yielded a Ki in data set [2] of more than 5 nM. The compound also registered an EC50 in data set [3] of more than 75 nM. The minimal effective dose in data set [1] (setting [6]) amounted to 3 mg/kg.

Compound `COC1(c2cccc(C(N)=O)c2)C2CCCC1CN(CCN1C(=O)CCC1=O)C2.Cl` [Compound 65, 3-((1R,5S,9r)-3-(2-(2,5-dioxopyrrolidin-1-yl)ethyl)-9-methoxy-3-azabicyclo[3.3.1]nonan-9-yl)benzamide hydrochloride] displayed a Ki in data set [2] of less than 1 nM. Further, the EC50 in data set [3] is less than 10 nM. Besides, the minimal effective dose in data set [1] (setting [6]) is 0.1 mg/kg.

`COC1(c2cccc(C(N)=O)c2)C2CCCC1CN(C[C@H]1C[C@H]3CC[C@@H](C1)O3)C2` (stereo partly shown) [Compound 166] yielded an EC50 in data set [5] of less than 10 nM.

On to `COC[C@H](C)N1CC2CCCC(C1)C2(OC)c1ccnc(C(N)=O)c1.Cl` (single isomer, unassigned) [Compound 61], for which the minimal effective dose in data set [1] (setting [6]) is 0.3 mg/kg. In addition, in data set [4] (setting [8]), the “<60 mmHg @ 10X CFA MEMD” value is “+ (resulted in a maximum pCO2 value of less than 60 mmHg within 2 hours of administration)”. Further, the “<60 mmHg @ 100X CFA MEMD” value in data set [4] (maximum pCO2 within 2 hours of administration, dose 100× CFA MEMD, subcutaneous) is given as “+ (resulted in a maximum pCO2 value of less than 60 mmHg within 2 hours of administration)”.

With `COC1(c2cccc(C(N)=O)c2)C2CCCC1CN([C@@H](C)c1n[nH]c3cnccc13)C2` (stereo partly shown) [Compound 190], the EC50 in data set [5] was less than 10 nM.

As to `COc1ccc2c3c1O[C@H]1C(=O)CC[C@@]4(O)[C@@H](C2)N(C)CC[C@]314` [Oxycodone, reference compound], the minimal effective dose in data set [1] (setting [7]) was found to be 3 mg/kg. Moreover, in data set [4] (in vivo, sc), the “<60 mmHg @ 10X CFA MEMD” value was “− (key: −: resulted in a maximum pCO2 value of greater than 60 mmHg within 2 hours of administration; +: resulted in a maximum pCO2 value of less than 60 mmHg within 2 hours of administration)”.

Compound `CCOC1(c2cccc(C(N)=O)c2O)C2CCCC1CNC2` (stereo not shown) [Compound 207] showed an EC50 in data set [5] of more than 75 nM.
